# Assay results reported in article PMC3556473, “Absorption, metabolism and excretion of [^14C]pomalidomide in humans following oral administration” (Cancer Chemotherapy and Pharmacology, 2012).
# Values joined by “and” are separate entries in the source; they are usually repeats but may differ in a detail not shown here. Equal entries are not always repeated.
# Assays:
# [1] = Plasma pharmacokinetics of pomalidomide and circulating metabolites by radiochromatography (metabolite profiling); type: in vivo, human; parameters: AUC0–24 / AUC0−∞: concentration or dose not given beside the values; settings: for Plasma (% AUC relative to TRA): AUC0–24 (unchanged drug or metabolite)/AUC0–24 (TRA) * 100 %; for Tmax / half-life: human, oral, 2 mg; for Tmax: median and range; for half-life: male, read-out: t ½ (converted); for AUC/AUCTRA: plasma exposure relative to total radioactivity
# Protocol: Individual plasma samples collected from all subjects at 1, 2.5, 4, 6, 10, 12 and 24 h post-dose were analyzed for metabolite profiling. Samples were extracted with acetonitrile, the supernatant was removed, and the pellet was washed with 0.1 % formic acid in water and extracted again with acetonitrile. The combined supernatants were adjusted to 15 or 25 mL by adding acetonitrile then evaporated to dryness under a stream of nitrogen. The residues were re-suspended in 0.1 % formic acid in water, assayed for extraction recovery and analyzed for metabolite profiling. A control plasma sample spiked with [^14C]pomalidomide was extracted in a similar manner to determine the extraction efficiency and stability of [^14C]pomalidomide.
# (§1) HPLC analysis for metabolite profiling (HPLC Method 1) was performed using a Waters 2695 Alliance Separation Module (Waters Corp., Milford, MA) with the autosampler set to 4 °C. [^14C]Pomalidomide and metabolites were separated using an ACE C18 column (150 × 4.6 mm, 3 μm; Advanced Chromatography Technologies, Aberdeen, Scotland) equipped with an ACE C18 guard column (10 × 3 mm, 3 μm). The mobile phases used were 25 mM ammonium acetate in water: pH 5.5 with formic acid (mobile phase A) and methanol (mobile phase B). The column temperature was 30 °C, and the flow rate was 0.7 mL/min. The linear gradient was delivered as follows: 0–2 min 100 % A; 2–38 min to 64 % A; 38–44 min to 0 % A; 44–48 min hold at 0 % A; return to initial conditions over 2 min.
# (§2) Radioactivity profiles for plasma and excreta were determined by collecting the column eluate into 96-well Deepwell LumaPlates™ at a rate of 0.25 min/fraction. The plates were dried and the radioactivity in each well determined using a PerkinElmer TopCount® NXT™ Microplate Scintillation Counter. HPLC radiochromatograms were reconstructed using LC-ARC data handling software.
# For pomalidomide and metabolite concentrations in plasma based on metabolite profiling data, pharmacokinetic data were generated by non-compartmental analysis of plasma versus time profiles using WinNonlin (version 4.1, Enterprise Edition).
# [2] = Metabolite profiling of urine and feces (% of dose excreted); type: in vivo, human; settings: for % of dose excreted, Feces: pooled feces 0–96 h; for % of dose excreted, Feces / % of dose excreted, Urine: radiochromatography; for % of dose excreted, Urine: pooled urine 0–72 h
# Protocol: For each subject, urine samples were pooled using an equal percentage by volume of the 0–6, 6–12, 12–24, 24–48 and 48–72 h samples. Pools of the 0–6, 6–12, 12–24, 24–48 and 48-72 h collections were also prepared across subjects and analyzed for metabolite profiling. Samples were mixed and centrifuged prior to the supernatants being transferred to fresh tubes for metabolite profiling analysis.
# For each subject, fecal homogenates for metabolite profiling were pooled using an equal percentage by weight of the 0–24, 24–48, 48–72 and 72–96 h samples. Pools of the 0–24, 24-48, 48–72 and 72–96 h collections were also prepared across subjects and analyzed for metabolite profiling. An aliquot of each pool was extracted with acetonitrile; samples were mixed and centrifuged. The supernatant was removed and the pellets re-suspended with 0.1 % formic acid and extracted with acetonitrile. The combined supernatants were evaporated to dryness under a stream of nitrogen and the residue re-suspended in methanol:0.1 % formic acid in water (1:1). Samples were assayed for extraction recovery prior to metabolite profiling. A control fecal homogenate spiked with [^14C]pomalidomide was extracted in a similar manner to determine the extraction efficiency and stability of [^14C]pomalidomide.
# as §1, §2
# H929 MM cell = assay: Inhibition of MM cell proliferation ([3H]-thymidine incorporation, 3-day culture); type: cell-based; settings: Homo sapiens, NCI-H929
# Protocol: (§3) Metabolites and hydrolysis products of pomalidomide were tested for pharmacological activity in the following three assay systems: (1) inhibition of MM cell proliferation, (2) enhancement of primary human T cell IL-2 production and (3) inhibition of TNF-α production by lipopolysaccharide (LPS)-stimulated human peripheral blood mononuclear cells (PBMC). For all three assay types, compounds were dissolved in 100 % dimethyl sulfoxide (DMSO) and diluted into complete cell culture medium, consisting of Roswell Park Memorial Institute (RPMI)-1640 plus penicillin, streptomycin and L-glutamine (Mediatech, Manassas, VA). The MM cell proliferation cell culture medium contained 10 % fetal bovine serum, while the primary human cell cultures contained 10 % human AB serum (Invitrogen, Brown Deer, WI). The final DMSO concentration in the cell culture media was 0.25 %.
# (§4) The human MM cell line OPM-2 was obtained from DSMZ (Braunschweig, Germany), and human MM cell lines U266 B1 and NCI-H929 were obtained from ATCC (Manassas, VA). Inhibition of MM cell proliferation was assessed by the [^3H]-thymidine incorporation assay in a 3-day culture in the presence of compounds in complete medium, as previously described. Primary human T cells were isolated from PBMC by negative selection using the RosetteSep T Cell Enrichment Cocktail (STEMCELL Technologies, Tukwila, WA) according to the manufacturer’s procedures. Costimulation of T cell IL-2 production was measured in a 2-day culture of primary human T cells isolated from healthy donors stimulated with anti-CD3 antibody in the presence of compounds, as previously described. Inhibition of TNF-α production by LPS-stimulated human PBMC was measured in a 1-day culture in the presence of compound, as previously described.
# OPM-2 MM cell = assay: as above; type: cell-based; settings: Homo sapiens
# Protocol: as §3, §4
# U266 MM cell = assay: as above; type: cell-based; settings: Homo sapiens, U-266
# Protocol: as §3, §4
# PBMC TNF-α production = assay: Inhibition of TNF-α production by LPS-stimulated human PBMC (1-day culture); type: cell-based; settings: 24 h
# Protocol: as §3, §4
# [3] = plasma, plasma, radiochromatography, geometric mean (%CV)
# [4] = plasma, radiochromatography, geometric mean (%CV)
Plasma (% AUC relative to TRA) [1] [%],"Tmax ([1]; plasma, radiochromatography) [h]","half-life [1, 3] [h]",AUC/AUCTRA [1],AUC/AUCTRA ([1]; listed as pomalidomide),"AUC0–24 [1, 4]","AUC0−∞ [1, 4]","C max [1, 4]","t ½ [1, 4]","Percent dose excreted in human urine, Parent ([2]; pomalidomide, this study) [%]","Percent dose excreted in human urine, Total ([2]; pomalidomide, this study) [%]","% of dose excreted, Feces [2] [%]","% of dose excreted, Feces ([2]; listed as pomalidomide) [%]","% of dose excreted, Urine [2] [%]","dose excreted as unchanged drug (excreta) ([2]; urine + feces, % of the dose) [%]",IC50 (H929 MM cell) [nM],IC50 (U266 MM cell) [nM],Compound,IC50 (OPM-2 MM cell) [nM],IC50 (PBMC TNF-α production) [nM]
69.6,2.5,9.4,70% and 69.6%,approximately 70%,135 (33.4) ngEq*h/mL,165 (43.2) ngEq*h/mL,11.0 (22.5) ngEq/mL,9.41 (25.0) h,2.2,72.8,7.7,8,2.2,10,35,28,"Nc1cccc2c1C(=O)N(C1CCC(=O)NC1=O)C2=O (racemic) [Pomalidomide, (RS)-4-amino-2-(2,6-dioxo-piperidin-3-yl)-isoindoline-1,3-dione]",38,3.1
4.0,2.5,11,4.00%,–,7.76 (24.8) ngEq*h/mL,11.5 (36.9) ngEq*h/mL,0.68 (33.3) ngEq/mL,–,–,–,2.8,–,3.2,–,> 1000,> 1000,"Nc1c(O)ccc2c1C(=O)N(C1CCC(=O)NC1=O)C2=O (centres unmarked) [Metabolite M17, 5-hydroxy pomalidomide]",> 1000,> 10000
